Data reported in patent publication US20220369688A1, “ORAL COMPOSITIONS AND RELATED METHODS FOR REDUCING THROAT IRRITATION” (NICOVENTURES TRADING LIMITED, priority 2021, published 2022).
Where two headings read alike, the source gives them in different places.

Columns and labels:
[1] = cited from earlier work
[2] = organic acid, octanol/water; cited from earlier work
[3] = cited from earlier work; remark: listed apart in the source
[4] = 1,000 ppm nicotine, pH 6.5
[5] = 1,000 ppm nicotine, 2 equivalents of octanoic acid (sodium octanoate), pH 6.5
Description: A pH probe was submerged in the resulting liquid and HCl (0.05 M) was added under stirring to bring the solution to pH 6.5. The flask weight was then brought up to 100 grams with RO water. […] Partitioning was performed by removing aliquots (10 mL) of each solution and placing into separate 20 ml scintillation vials. Octanol (10 ml) was added to each vial. The vials were then placed on a wrist action shaker for 20 minutes. Following agitation, the vials were allowed to separate for 30 min. and an aliquot (100 μl) of each octanol layer was removed and diluted with 900 μl octanol in 2 mL GC/MS vials.

human buccal tissue = details: nicotine solution at pH=6 relative to pH 8.1; cited from earlier work

## CC(/C=C/C=C(C)/C=C/C(=O)O)=C\C=C\C=C(C)\C=C\C=C(C)\C=C\C(=O)O (stereo in doubt) [norbixin, (2E,4E,6E,8E,10E,12E,14E,16E,18E)-4,8,13,17-tetramethylicosa-2,4,6,8,10,12,14,16,18-nonaenedioic acid]
[1]
  solubility in water: water soluble

## CCCCCCCS(=O)(=O)O [1-heptanesulfonic acid]
[2]
  logP: 0.88

## O=C(O)c1ccccc1 [benzoic acid]
1000 ppm nicotine in unbuffered water with 1 molar equivalent of sodium benzoate, 100 μl octanol aliquot diluted in 900 μl
  concentration in octanol: 19.2 ppm
1000 ppm nicotine, 1 molar equivalent sodium benzoate
  benzoic acid molarity in octanol in terms of nicotine mass: 25.5 ppm nicotine

## COC(=O)/C=C/C(C)=C\C=C\C(C)=C\C=C\C=C(C)\C=C\C=C(C)\C=C\C(=O)O [bixin, (2E,4E,6E,8E,10E,12E,14E,16Z,18E)-20-methoxy-4,8,13,17-tetramethyl-20-oxoicosa-2,4,6,8,10,12,14,16,18-nonaenoic acid]
[1]
  solubility in water: insoluble in water

## CC(=O)CCC(=O)O [levulinic acid]
[2]
  logP: −0.49

## CC(C)[C@@H]1CC[C@@H](C)C[C@H]1OC(=O)CCC(=O)O [monomenthyl succinate]
[2]
  logP: 3

## CN1CCCC1c1cccnc1 (centres unmarked) [nicotine]
[3]; pyridine ring nitrogen
  log Ka1: 3.41
[3]; pyrrolidine ring nitrogen
  log Ka2: 8.02
[4]; 10 eq. benzoic acid (sodium benzoate)
  % nicotine in octanol: ~52%
[4]; 10 eq. octanoic acid (sodium octanoate)
  % nicotine in octanol: ~75%
[5]
  nicotine partitioned into octanol: ~67%
Human buccal tissue
  factor by which diffusion rate is reduced: ~7

## CCCCCCCC(=O)O [octanoic acid]
[2]
  logP: 3.05

## O=C(O)C(O)C(O)C(=O)O (centres unmarked) [tartaric acid]
[2]
  logP: −1.9

## ethyl benzoic acid
[2]
  logP: 2.9

## isopropyl benzoic acid
[2]
  logP: 3.5
